From the supplement of paper PMC5908809

Tests used:
[1] = test system: normal NK cells expanded with K562-aAPC; assay: drug sensitivity score (DSS) (DSS units); higher = more sensitive; extreme values may be limits of the assay; settings: 72 h; IL-2 2.5 ng/mL
Protocol: (§1)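 Drug sensitivity and resistance testing on K562-aAPC-expanded normal NK cells: 5 concentrations (10-fold steps over a 10,000-fold range), 72 h at 37 °C, viability by CellTiter-Glo normalised to DMSO and benzethonium chloride controls; DSS from the fitted curve.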

[2] = test system: normal primary NK cells, pool 1 (3 donors) (IL-2 2.5 ng/mL); assay: as above; settings: 72 h
NK-YS (IL-2 2.5 ng/mL) [3] = assay: as above; settings: 72 h
[4] = test system: normal primary NK cells, pool 2 (3 donors) (IL-2 2.5 ng/mL); assay: as above; settings: 72 h
[5] = test system: normal primary NK cells, pool 3 (3 donors) (IL-2 2.5 ng/mL); assay: as above; settings: 72 h
YT (IL-2 2.5 ng/mL) [6] = assay: as above; settings: 72 h
NK-92 (IL-2 2.5 ng/mL) [7] = assay: as above; settings: 72 h
DERL-7 (IL-2 2.5 ng/mL) [8] = assay: as above; settings: 72 h
NKL (IL-2 2.5 ng/mL) [9] = assay: as above; settings: 72 h
KHYG-1 (IL-2 2.5 ng/mL) [10] = assay: as above; settings: 72 h
[11] = test system: normal primary NK cells, pool 1 (3 donors), resting (IL-2 0 ng/mL); assay: as above; settings: 72 h
SNK-6 (IL-2 2.5 ng/mL) [12] = assay: as above; settings: 72 h
IMC-1 (IL-2 20 ng/mL) [13] = assay: as above; settings: 72 h
KAI3 (IL-2 2.5 ng/mL) [14] = assay: as above; settings: 72 h
[15] = test system: normal primary NK cells, pool 1 (3 donors) (IL-2 2.5 ng/mL); assay: percent inhibition of viability; higher = more inhibition; settings: 72 h
NK-YS (IL-2 2.5 ng/mL) [16] = assay: as above; settings: 72 h
[17] = test system: normal primary NK cells, pool 2 (3 donors) (IL-2 2.5 ng/mL); assay: as above; settings: 72 h
[18] = test system: normal primary NK cells, pool 3 (3 donors) (IL-2 2.5 ng/mL); assay: as above; settings: 72 h
YT (IL-2 2.5 ng/mL) [19] = assay: as above; settings: 72 h
NK-92 (IL-2 2.5 ng/mL) [20] = assay: as above; settings: 72 h
DERL-7 (IL-2 2.5 ng/mL) [21] = assay: as above; settings: 72 h
NKL (IL-2 2.5 ng/mL) [22] = assay: as above; settings: 72 h
KHYG-1 (IL-2 2.5 ng/mL) [23] = assay: as above; settings: 72 h
[24] = test system: normal primary NK cells, pool 1 (3 donors), resting (IL-2 0 ng/mL); assay: as above; settings: 72 h
SNK-6 (IL-2 2.5 ng/mL) [25] = assay: as above; settings: 72 h
IMC-1 (IL-2 20 ng/mL) [26] = assay: as above; settings: 72 h
KAI3 (IL-2 2.5 ng/mL) [27] = assay: as above; settings: 72 h
[28] = test system: normal NK cells expanded with K562-aAPC; assay: as above; settings: 72 h, IL-2 2.5 ng/mL
Protocol: as §1

COc1cc2nccc(Oc3ccc(NC(=O)C4(C(=O)Nc5ccc(F)cc5)CC4)cc3)c2cc1OC [Cabozantinib] (max concentration tested 1000 nM)
Settings | drug sensitivity score
DERL-7 (IL-2 2.5 ng/mL) [8] | 0
IMC-1 (IL-2 20 ng/mL) [13] | 0
KAI3 (IL-2 2.5 ng/mL) [14] | 0
KHYG-1 (IL-2 2.5 ng/mL) [10] | 0
NK-92 (IL-2 2.5 ng/mL) [7] | 1.73
NK-YS (IL-2 2.5 ng/mL) [3] | 0
NKL (IL-2 2.5 ng/mL) [9] | 0.33
SNK-6 (IL-2 2.5 ng/mL) [12] | 0
YT (IL-2 2.5 ng/mL) [6] | 0.02
[1] | 0
[2] | 0
[4] | 0
[5] | 0
[11] | 0.01

percent inhibition of viability [%]
Settings | 0.1 nM | 1 nM | 10 nM | 100 nM | 1000 nM
DERL-7 (IL-2 2.5 ng/mL) [21] | 4.09 | 2.17 | 6.31 | -1.21 | 8.67
IMC-1 (IL-2 20 ng/mL) [26] | -7.19 | 0.46 | 1.98 | 6.03 | 8.61
KAI3 (IL-2 2.5 ng/mL) [27] | -1.21 | 2.25 | 0.33 | -5.2 | 0.09
KHYG-1 (IL-2 2.5 ng/mL) [23] | -1.92 | 1.46 | 4.91 | 3.42 | 7.82
NK-92 (IL-2 2.5 ng/mL) [20] | 1.61 | 12.2 | 13.4 | 2.98 | 25.1
NK-YS (IL-2 2.5 ng/mL) [16] | -3.98 | -1.22 | 1.67 | -2.46 | 0.65
NKL (IL-2 2.5 ng/mL) [22] | -19 | -5.16 | -4.38 | -6.13 | 19.2
SNK-6 (IL-2 2.5 ng/mL) [25] | 7.18 | 7.13 | 10.3 | -6.13 | -0.11
YT (IL-2 2.5 ng/mL) [19] | -1.79 | -0.81 | 0.31 | 0.38 | 11.3
[15] | -2.72 | -8.6 | -1.12 | -10.1 | -9.52
[17] | -8.26 | 3.55 | 9.65 | -7.89 | 11.1
[18] | -18.8 | -3.79 | 10.5 | -12.7 | -3.82
[24] | 8.87 | -5.07 | -5.31 | -16.9 | 11.5
[28] | -0.51 | 2.22 | 1.52 | 13.2 | 5.74

CCCCCOC(=O)Nc1nc(=O)n([C@@H]2O[C@H](C)[C@@H](O)[C@H]2O)cc1F [Capecitabine] (max concentration tested 10000 nM)
Settings | drug sensitivity score
DERL-7 (IL-2 2.5 ng/mL) [8] | 3.42
IMC-1 (IL-2 20 ng/mL) [13] | 0
KAI3 (IL-2 2.5 ng/mL) [14] | 4.96
KHYG-1 (IL-2 2.5 ng/mL) [10] | 0
NK-92 (IL-2 2.5 ng/mL) [7] | 0
NK-YS (IL-2 2.5 ng/mL) [3] | 1.92
NKL (IL-2 2.5 ng/mL) [9] | 0
SNK-6 (IL-2 2.5 ng/mL) [12] | 6.62
YT (IL-2 2.5 ng/mL) [6] | 2.47
[1] | 0
[2] | 0
[4] | 0
[5] | 0
[11] | 1.76

percent inhibition of viability [%]
Settings | 1 nM | 10 nM | 100 nM | 1000 nM | 10000 nM
DERL-7 (IL-2 2.5 ng/mL) [21] | 0.46 | 4.42 | -2.34 | 4.15 | 52.2
IMC-1 (IL-2 20 ng/mL) [26] | -3.3 | -4.34 | -6.24 | -6.22 | -8.14
KAI3 (IL-2 2.5 ng/mL) [27] | 1.53 | 10.3 | 11 | 18.4 | 51.4
KHYG-1 (IL-2 2.5 ng/mL) [23] | -4.65 | -8.98 | -2.6 | -4.39 | -2.75
NK-92 (IL-2 2.5 ng/mL) [20] | -10.2 | 1.4 | 2.48 | -3.88 | 10.2
NK-YS (IL-2 2.5 ng/mL) [16] | -5.86 | -8.43 | -2.42 | -0.04 | 39
NKL (IL-2 2.5 ng/mL) [22] | -14.2 | -5.91 | -4.8 | 5.16 | -0.14
SNK-6 (IL-2 2.5 ng/mL) [25] | 12 | 11.5 | 0.05 | 16.4 | 72.5
YT (IL-2 2.5 ng/mL) [19] | -3.7 | -7.15 | -2.55 | -0.84 | 48.6
[15] | -11.1 | -11.6 | 0.78 | -4.13 | -5.4
[17] | -2.47 | 1.21 | -0.29 | -0.41 | -2.27
[18] | 0.26 | 5.64 | 1.92 | 7.05 | 2.46
[24] | -8.89 | -7.83 | 13.7 | 10.2 | 11
[28] | -1.3 | 3.24 | -1.87 | -1.09 | -2.22

CC(C)C[C@H](NC(=O)[C@H](CCc1ccccc1)NC(=O)CN1CCOCC1)C(=O)N[C@@H](Cc1ccccc1)C(=O)N[C@@H](CC(C)C)C(=O)[C@@]1(C)CO1 [Carfilzomib] (max concentration tested 1000 nM)
Settings | drug sensitivity score
DERL-7 (IL-2 2.5 ng/mL) [8] | 37.2
IMC-1 (IL-2 20 ng/mL) [13] | 30.3
KAI3 (IL-2 2.5 ng/mL) [14] | 34.8
KHYG-1 (IL-2 2.5 ng/mL) [10] | 30.9
NK-92 (IL-2 2.5 ng/mL) [7] | 33.1
NK-YS (IL-2 2.5 ng/mL) [3] | 30.9
NKL (IL-2 2.5 ng/mL) [9] | 29.9
SNK-6 (IL-2 2.5 ng/mL) [12] | 31.1
YT (IL-2 2.5 ng/mL) [6] | 30.6
[1] | 29.7
[2] | 34
[4] | 33.4
[5] | 31.4
[11] | 34.1

percent inhibition of viability [%]
Settings | 0.1 nM | 1 nM | 10 nM | 100 nM | 1000 nM
DERL-7 (IL-2 2.5 ng/mL) [21] | 0.47 | 55.2 | 101 | 101 | 101
IMC-1 (IL-2 20 ng/mL) [26] | -4.55 | -1.82 | 100 | 101 | 101
KAI3 (IL-2 2.5 ng/mL) [27] | -4.59 | 28.8 | 101 | 105 | 107
KHYG-1 (IL-2 2.5 ng/mL) [23] | -8.88 | 2.3 | 101 | 105 | 105
NK-92 (IL-2 2.5 ng/mL) [20] | 1.15 | 15.4 | 101 | 106 | 106
NK-YS (IL-2 2.5 ng/mL) [16] | -4.19 | 3.04 | 101 | 104 | 105
NKL (IL-2 2.5 ng/mL) [22] | -2.93 | -11 | 102 | 106 | 108
SNK-6 (IL-2 2.5 ng/mL) [25] | -4.32 | 5.11 | 99.5 | 101 | 101
YT (IL-2 2.5 ng/mL) [19] | -5.39 | 1.26 | 100 | 105 | 105
[15] | -1.09 | 26.1 | 97.9 | 99.6 | 99.8
[17] | -2.72 | 22.8 | 97.1 | 99.5 | 99.7
[18] | -8.33 | 11.5 | 94.8 | 100 | 101
[24] | -8.37 | 33.8 | 94 | 98.4 | 98.3
[28] | -5.98 | -4.15 | 96.8 | 101 | 101
